Results: US9309247B2, “2-substituted imidazo[4,5-D]phenanthroline derivatives and their use in the treatment of cancer” (Aptose Biosciences Inc., priority 2013, dated 2016)

Columns and labels:
[1] = tested on: colon carcinoma KM-12 cells; experiment: Colon carcinoma (KM-12) xenograft model; assay type: in vivo, CD-1 female nude mice; conditions: vs vehicle-treated control, FIG. 2
Procedure: The ability of compound 1 to inhibit colon tumour growth in vivo was tested as follows. CD-1 female nude mice (7 mice per treatment group, 6-7 weeks) were injected […] with human colon adenocarcinoma cells HT-29 cells (3×10^6 cells in 0.1 ml PBS). Treatment of the mice with vehicle or 50 mg/kg/d of […] was initiated 5 days post-inoculation (size of tumours=20-40 mm^3) for 7-day cycles of five days followed by a 2 day break for 5 weeks. The size of the tumours was measured over the course of the experiment using calipers, and the weight of the tumours was measured after the animals were sacrificed.
Similar tests were conducted with colon carcinoma KM-12 cells and colon carcinoma SW-620 cells.

[2] = tested on: brain cancer/tumour cells U87-MG; experiment: XTT cell proliferation assay, U87-MG; assay type: cell-based, human; conditions: 5 days incubation, read-out: Antiproliferative activity, Brain U87-MG
Procedure: (§1) Exemplary compounds 1-8 were tested for anti-cancer activity in vitro using human renal cancer cells (ACHN and CAK-1), human pancreatic cells (BXPC3 and SU-86-86), human prostate cancer cell (DU14), human colon carcinoma cells (HT-29 and KM-12), leukemia cells (HL60), brain cancer/tumour cells (SK-A-AS, U87-MG), and human non-small cell lung cancer cells (H460). Compounds 1-8 are the specific embodiments of Formula (I) and Formula (IV) as described above in this application.
(§2) The cells were maintained as a monolayer in a growth medium; McCoy's 5A modified medium (Sigma, St. Louis, Mo.), supplemented with 2 mM L-glutamine (Gibco, Grand Island, N.Y.), 10% fetal bovine serum (FBS) (Multicell, WISENT Inc. St-Bruno, QC), antibiotic-antimycotic (Multicell), at 37° C. in a 5% CO2-humidified incubator. Cells were transferred onto 150 mm tissue culture plates and grown until sub-confluency (70-80%) prior to their use. The in vitro antiproliferative activity of compounds was evaluated by incubating the cells with varying concentrations of exemplary compounds as shown in Table 1 for 5 days. The efficacy of these compounds in this cell proliferation assay was measured based in the ability of live cells to reduce the tetrazolium salt XTT to orange colored compounds of formazan (XTT cell proliferation kit IT, Roche Applied Science, Montreal, QC).

[3] = tested on: human pancreatic cells SU-86-86; experiment: XTT cell proliferation assay, SU-86-86; assay type: cell-based; conditions: 5 days incubation, read-out: Antiproliferative activity, Pancreas SU-86-86
Procedure: as §1, §2

[4] = tested on: leukemia cells HL60; experiment: XTT cell proliferation assay, HL60; assay type: cell-based, human; conditions: 5 days incubation, read-out: Antiproliferative activity, Leuk. HL60
Procedure: as §1, §2

[5] = tested on: WR19L (mouse, lymphoma); experiment: Cell growth inhibition assay, WR19L; assay type: cell-based; conditions: five days of incubation, XTT; read-out: IC50 WR19L (ms)
Procedure: (§3) In this study, compounds 1-8 were screened in vitro against a panel of four mouse lymphoma cell lines and two human lymphoma cell line for cell growth inhibition activity. Following treatment, half maximal inhibitory concentrations (IC50) were determined with the objective of selecting the most efficacious compounds for evaluation of in vitro absorption, distribution, metabolism, and excretion (ADME) screening.
Similarly, human Burkitt's lymphoma Ramos cells (ATCC CRL-1596) were grown in suspension in Roswell Park Memorial Institute (RPMI) 1640 medium supplemented with 10% fetal bovine serum (FBS), 10 mM HEPES KOH pH 7.4, and 2 mM sodium pyruvate. Mouse P388D1 (ATCC CCL-46) and WR19L (ATCC TIB-52) cells were grown in suspension in Dulbecco's Modified Eagle Medium (DMEM) with 10% fetal bovine serum (FBS), 10 mM HEPES, and 2 mM sodium pyruvate. Mouse WEHI231 (ATCC CRL-1702) and EL4 (ATCC TIB-39) cells were grown in suspension in DMEM with 10% fetal bovine serum (FBS), 10 mM HEPES KOH pH 7.4, 2 mM sodium pyruvate, and 0.05 mM β-mercaptoethanol. All cells were maintained at 37° C. in an atmosphere of 5% CO2 in air. Logarithmically growing cells were routinely sub-cultured twice weekly. Briefly, cells were collected by centrifugation, resuspended in pre-warmed media, and diluted 1:10 into a 75 cm^2 flask.
(§4) Cells were subcultured and 4×10^3 cells (in 50 μL) were transferred to each well in a Falcon 96-well tissue culture plate. Exemplary compounds were dissolved in pure dimethyl sulphoxide (DMSO) at a concentration of 10 mM. From this 10 mM stock solution, 12 successive serial dilutions were made in DMSO (2.5 fold dilutions), ranging from 0.52 μM to 10 mM. Using these stock dilutions, 5 μL of each were added to 500 μL of media, and 50 μL of this was added to the cells. The final concentrations being tested ranged from 0.0026 μM to 50 μM. Each concentration was tested in triplicate, and DMSO and untreated cells were also included as controls. After five days of incubation with the compounds, cell viability was determined using the XTT cell proliferation kit (Roche, Cat. No. 11 465 015 001). Following the XTT protocol, 4.5-24 hours after addition of the reagent, the plates were read in a μQuant 96-well plate spectrophotometer (Biotek Instruments Inc.) and the results analyzed to determine the IC50.

[6] = tested on: human renal cancer cells CAKI-1; experiment: XTT cell proliferation assay, CAKI-1; assay type: cell-based; conditions: 5 days incubation, read-out: Antiproliferative activity, Kidney CAKI-1
Procedure: as §1, §2

[7] = tested on: Human Burkitt's lymphoma Raji cells; experiment: Cell growth inhibition assay, Raji; assay type: cell-based; conditions: five days of incubation, XTT; read-out: IC50 Raji (hs)
Procedure: as §3
Human Burkitt's lymphoma Raji cells (ATCC CCL-86) were grown in suspension in Roswell Park Memorial Institute (RPMI) 1640 medium supplemented with 10% fetal bovine serum (FBS), 10 mM HEPES KOH pH 7.4, and 2 mM sodium pyruvate at 37° C. in an atmosphere of 5% CO2 in air. Logarithmically growing cells were routinely sub-cultured twice weekly. Briefly, cells were collected by centrifugation, resuspended in pre-warmed media, and diluted 1:10 into a 75 cm^2 flask.
as §4

Compound: FC1(F)Oc2ccc(-c3nc4c5cccnc5c5ncccc5c4[nH]3)cc2O1 [Compound 1]
- inhibition of tumour growth, as measured by tumour size [1]: able to inhibit tumour growth
- IC50 [2]: 190 nM
- IC50 [3]: 180 nM
- IC50 [4]: 30 nM
- IC50 [5]: 82 nM
- IC50 [6]: 156 nM
- IC50 [7]: 153 nM
